Here are results for 16 compounds from PubChem BioAssay (NCI).

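Method: 48-hour compound exposure of cells in 96-well plates, five concentrations, linear interpolation of endpoints. TGI denotes the concentration required for complete inhibition of growth.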

Some test systems named below: TK-10 renal; SW-620 colon; K-562 leukemia; SR leukemia; HOP-62 NSCLC; KM12 colon; CAKI-1 renal; RPMI-8226 leukemia; SK-MEL-5 melanoma; T-47D breast.
Experiment in all cases: NCI anticancer screen, dose series, 48 h

`CCOC(=O)C1=C(O)c2ccc(C)cc2C(=O)C1=O`: the TGI in the assay with TK-10 renal, in the assay with SW-620 colon, in the assay with K-562 leukemia, with SR leukemia, with HOP-62 NSCLC and in the assay on KM12 colon was over 100 µM each time. The TGI in the assay with CAKI-1 renal, in the assay with RPMI-8226 leukemia and in the assay on SK-MEL-5 melanoma was over 100 µM in each case.
For `CC1(C)O[C@@H](C[C@]2(C#N)C[C@H](CCl)OC(C)(C)O2)C[C@@H](C#N)O1`, the TGI with TK-10 renal, in the assay with SW-620 colon, in the assay on K-562 leukemia, with SR leukemia, in the assay on HOP-62 NSCLC and with KM12 colon was over 100 µM each time. Besides, the TGI with CAKI-1 renal, in the assay on RPMI-8226 leukemia and in the assay with SK-MEL-5 melanoma was over 100 µM each time.
Regarding `CCCCN(C)/N=N/c1nc[nH]c1C(N)=O`, the TGI in the assay with SW-620 colon, with K-562 leukemia, in the assay on KM12 colon, in the assay with CAKI-1 renal, with RPMI-8226 leukemia and in the assay with SK-MEL-5 melanoma was over 100 µM each time.
Regarding `[N-]=[N+]=NCC(O)Cn1cnc2c(NC(=O)c3ccccc3)ncnc21` (stereo not drawn), the TGI in the assay with TK-10 renal, with SW-620 colon, with K-562 leukemia, in the assay on HOP-62 NSCLC, in the assay with KM12 colon and in the assay on CAKI-1 renal was over 100 µM throughout. The TGI in the assay on RPMI-8226 leukemia and in the assay with SK-MEL-5 melanoma was over 100 µM throughout.
For the compound `COC(=O)Nc1nc2ccc(NC(=O)c3ccc(I)cc3)cc2[nH]1`, the TGI in the assay with TK-10 renal, in the assay on SW-620 colon, with K-562 leukemia, with HOP-62 NSCLC, in the assay with T-47D breast and in the assay with KM12 colon was over 100 µM in each case. Also, the TGI in the assay with CAKI-1 renal, in the assay on RPMI-8226 leukemia and in the assay with SK-MEL-5 melanoma was over 100 µM throughout.
For the compound `S=C1SC(=Nc2ccccc2)C(=Nc2ccccc2)N1c1ccc2ccccc2c1`, the TGI in the assay with K-562 leukemia, in the assay on SR leukemia, with HOP-62 NSCLC, in the assay with T-47D breast, in the assay with KM12 colon and with CAKI-1 renal was over 100 µM throughout. The TGI in the assay with RPMI-8226 leukemia and with SK-MEL-5 melanoma was over 100 µM each time.
For the compound `C=C1CC(C)(c2cccc(Nc3nc4ccccc4c4occc34)c2)OC1=O` (stereo not drawn), the TGI worked out at 9.99 µM in the assay on TK-10 renal; 25.9 µM with HOP-62 NSCLC; 20.5 µM with T-47D breast; 43.8 µM in the assay on KM12 colon; 16.7 µM with CAKI-1 renal; 4.62 µM with RPMI-8226 leukemia. The TGI in the assay on SK-MEL-5 melanoma came out at 28.3 µM.
Take `COc1ccc(Oc2ccccc2N)cc1`: the TGI in the assay on SW-620 colon, in the assay with K-562 leukemia, in the assay on SR leukemia, in the assay with HOP-62 NSCLC, in the assay with KM12 colon and with RPMI-8226 leukemia was over 100 µM in each case. Also, the TGI in the assay with SK-MEL-5 melanoma was 33.6 µM.
For `CSc1cnc2ccccc2c1Sc1c[nH]c2ccccc2c1=O`, the TGI in the assay with TK-10 renal was 91.4 µM; with SW-620 colon it was over 32.3 µM; in the assay with K-562 leukemia it was over 58.1 µM; with SR leukemia, over 52 µM; in the assay with HOP-62 NSCLC it was 43.6 µM; in the assay with KM12 colon it was 22.2 µM. For the same compound, the results for the TGI in the assay with RPMI-8226 leukemia and in the assay with SK-MEL-5 melanoma were 64.4 µM and 26.6 µM, respectively.
`Cc1nc(Nc2ccccc2Cl)sc1C(=O)CC(=O)C(N)=O`: the TGI in the assay on TK-10 renal, in the assay on SW-620 colon, in the assay with K-562 leukemia, in the assay with HOP-62 NSCLC, with T-47D breast and in the assay with KM12 colon was over 100 µM each time. Also, the TGI in the assay on CAKI-1 renal and in the assay with RPMI-8226 leukemia was over 100 µM throughout.
Regarding `CCOC(=O)c1cc(Br)c(-c2onc(C)c2Br)[nH]1`, the TGI in the assay with SW-620 colon is over 100 µM; in the assay with K-562 leukemia it was over 100 µM; in the assay with SR leukemia, over 100 µM; in the assay with HOP-62 NSCLC, 49.9 µM; with T-47D breast, over 100 µM; in the assay on KM12 colon, over 100 µM. Besides, the TGI with CAKI-1 renal, in the assay with RPMI-8226 leukemia and in the assay on SK-MEL-5 melanoma was over 100 µM in each case.
Turning to `CC(C)(C)C1=C(Br)C(O)(C(C)(C)C)OP1(=O)c1ccccc1` (stereo not drawn), the TGI in the assay on TK-10 renal, with SW-620 colon, in the assay on K-562 leukemia, with HOP-62 NSCLC, in the assay on T-47D breast and with KM12 colon was over 100 µM each time. Also, the TGI in the assay with CAKI-1 renal and in the assay with SK-MEL-5 melanoma was over 100 µM throughout.
On to `O=C1/C(=C/c2cccc3ccccc23)CCc2ccc([N+](=O)[O-])cc21`, for which the TGI with TK-10 renal, with SW-620 colon, with K-562 leukemia, with HOP-62 NSCLC, in the assay with T-47D breast and in the assay on KM12 colon was over 100 µM throughout. Also, the TGI with CAKI-1 renal and in the assay with RPMI-8226 leukemia was over 100 µM in each case.
For the compound `CCC(=O)OC1CCn2c1nc1c2C(=O)C(C)=C(NC(C)=O)C1=N` (stereo not drawn), the TGI with TK-10 renal was 12.8 µM; with SW-620 colon, 2.44 µM; in the assay on K-562 leukemia, over 100 µM; with SR leukemia, over 100 µM; with HOP-62 NSCLC, 3.47 µM; in the assay on KM12 colon it was 5.37 µM. Moreover, the results for the TGI with CAKI-1 renal and in the assay with SK-MEL-5 melanoma were 1.94 µM and 2.55 µM, respectively.
On to `CC(C)Oc1cccc(N2C(Nc3ccccc3)=Nc3ccncc3S2(=O)=O)c1`, for which the TGI with SW-620 colon was 57.4 µM; in the assay on K-562 leukemia, over 100 µM; in the assay with SR leukemia, over 100 µM; in the assay with HOP-62 NSCLC it was over 100 µM; in the assay on T-47D breast, 90.1 µM; in the assay with KM12 colon, 65.8 µM. Further, the TGI was over 100 µM in the assay on CAKI-1 renal and 26.6 µM in the assay with SK-MEL-5 melanoma.
Regarding `COc1cc(N(CCC#N)CCC#N)ccc1/C=N\NC(=O)c1ccc(C)cc1`, the TGI in the assay with TK-10 renal, with SW-620 colon, with K-562 leukemia, with HOP-62 NSCLC, in the assay with T-47D breast and in the assay on KM12 colon was over 100 µM throughout. The TGI with CAKI-1 renal and in the assay with SK-MEL-5 melanoma was over 100 µM in each case.
